The IC50 is the concentration at which inhibition is half-maximal.

Experiment [1] deals with T1, BACE1 (Homo sapiens (Human), UniProt P56817). Put plainly: In vitro enzymatic BACE1 FRET assay. It counts as biochemical. The note with it: read-out: BACE1 Enzyme IC50.
Target sequence in this assay (P56817 46-501): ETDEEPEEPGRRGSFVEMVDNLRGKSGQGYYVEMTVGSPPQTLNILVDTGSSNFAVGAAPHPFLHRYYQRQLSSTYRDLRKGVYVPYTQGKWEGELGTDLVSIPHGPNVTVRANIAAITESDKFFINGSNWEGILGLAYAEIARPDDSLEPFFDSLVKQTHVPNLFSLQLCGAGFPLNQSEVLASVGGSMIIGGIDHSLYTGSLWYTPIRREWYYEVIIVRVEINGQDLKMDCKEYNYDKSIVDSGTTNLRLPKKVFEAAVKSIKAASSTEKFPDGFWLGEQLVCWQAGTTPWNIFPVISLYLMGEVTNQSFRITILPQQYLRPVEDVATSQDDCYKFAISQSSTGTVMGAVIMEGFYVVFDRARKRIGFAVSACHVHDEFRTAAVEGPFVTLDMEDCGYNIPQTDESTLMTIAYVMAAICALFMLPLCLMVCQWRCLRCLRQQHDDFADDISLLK
The next experiment has as its target Cathepsin D (CatD) (Homo sapiens (Human), UniProt P07339). Description: In vitro enzymatic Cathepsin D (CatD) FRET assay. It counts as biochemical. The note with it: read-out: Cat D Enzyme IC50.
A further experiment has as its target human recombinant BACE2 (Homo sapiens (Human), UniProt Q9Y5Z0). Put plainly: In vitro enzymatic BACE2 FRET assay. It counts as biochemical. Conditions: read-out: BACE2 Enzyme IC50.
For experiment [2], the target named is T1, BACE1. Description: In vitro BACE1 cell-based assay (Aβ40 in conditioned medium of cells stably expressing APP, HTRF). Conditions: Aβ40 in conditioned media after 24 h incubation. (Time-resolved FRET reads energy transfer from a long-lived donor to a nearby acceptor.)
Target sequence in this assay (P56817 46-501, species assumed): as the sequence (P56817 46-501) above

Sequence of Cathepsin D (CatD) (P07339 65-412, species assumed): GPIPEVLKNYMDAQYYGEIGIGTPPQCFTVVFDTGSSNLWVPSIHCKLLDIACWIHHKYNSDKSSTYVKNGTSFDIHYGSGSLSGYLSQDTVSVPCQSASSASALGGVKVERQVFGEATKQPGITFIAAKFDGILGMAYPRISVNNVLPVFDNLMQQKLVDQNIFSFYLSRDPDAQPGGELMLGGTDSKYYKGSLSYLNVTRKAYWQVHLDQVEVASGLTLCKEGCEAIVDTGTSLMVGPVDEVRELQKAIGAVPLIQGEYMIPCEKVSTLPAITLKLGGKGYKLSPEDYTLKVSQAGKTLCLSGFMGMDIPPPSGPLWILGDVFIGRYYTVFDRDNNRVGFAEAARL
Sequence of human recombinant BACE2 (Q9Y5Z0 63-518): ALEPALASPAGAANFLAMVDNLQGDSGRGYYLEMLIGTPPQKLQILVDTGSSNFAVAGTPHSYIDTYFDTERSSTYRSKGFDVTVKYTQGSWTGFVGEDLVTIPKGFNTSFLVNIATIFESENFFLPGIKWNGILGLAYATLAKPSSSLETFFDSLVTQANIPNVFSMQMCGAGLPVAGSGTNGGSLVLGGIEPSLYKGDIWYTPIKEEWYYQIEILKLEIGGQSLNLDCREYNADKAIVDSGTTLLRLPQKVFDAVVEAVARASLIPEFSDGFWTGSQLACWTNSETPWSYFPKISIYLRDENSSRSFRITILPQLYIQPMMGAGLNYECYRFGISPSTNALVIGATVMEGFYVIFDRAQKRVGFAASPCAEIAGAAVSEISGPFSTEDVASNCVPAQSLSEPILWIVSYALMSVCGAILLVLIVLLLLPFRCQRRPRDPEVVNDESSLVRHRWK

Turning to `COc1cnc(/C(F)=C/c2ccc(F)c([C@]3(C)CS(=O)(=O)N(C)C(N)=N3)c2)cn1` [Example 241, (5R)-5-(2-fluoro-5-((Z)-2-fluoro-2-(5-methoxy-2-pyrazinyl)ethenyl)phenyl)-2,5-dimethyl-5,6-dihydro-2H-1,2,4-thiadiazin-3-amine 1,1-dioxide], the IC50 came out at 107 nM at BACE1 [1], 91300 nM on Cathepsin D (CatD), 75 nM at human recombinant BACE2 and 168 nM against BACE1 [2].
Taken in the same sequence, the figures for `CN1C(N)=N[C@](C)(c2cc(/C=C(\F)c3ncc(C(F)(F)F)cc3Cl)ccc2F)CS1(=O)=O` [Example 242, (5R)-5-(5-((Z)-2-(3-chloro-5-(trifluoromethyl)-2-pyridinyl)-2-fluoroethenyl)-2-fluorophenyl)-2,5-dimethyl-5,6-dihydro-2H-1,2,4-thiadiazin-3-amine 1,1-dioxide] were 5 nM, 99900 nM, 10 nM and 26 nM.
Taken in the same sequence, the figures for `CN1C(N)=N[C@](C)(c2cc(/C=C(\F)c3ccc(C(F)(F)F)cn3)ccc2F)CS1(=O)=O` [Example 244, (5R)-5-(2-fluoro-5-((Z)-2-fluoro-2-(5-(trifluoromethyl)-2-pyridinyl)ethenyl)phenyl)-2,5-dimethyl-5,6-dihydro-2H-1,2,4-thiadiazin-3-amine 1,1-dioxide] were 6 nM, 206000 nM, 31 nM and 8 nM.
Turning to `Cc1cc(C#N)cnc1/C(F)=C/c1ccc(F)c([C@]2(C)CS(=O)(=O)N(C)C(N)=N2)c1` [Example 245, 6-((Z)-2-(3-((5R)-3-amino-2,5-dimethyl-1,1-dioxido-5,6-dihydro-2H-1,2,4-thiadiazin-5-yl)-4-fluorophenyl)-1-fluoroethenyl)-5-methyl-3-pyridinecarbonitrile], the IC50 came out at 5 nM at BACE1 [1], 137000 nM at Cathepsin D (CatD), 21 nM on human recombinant BACE2 and 4 nM at BACE1 [2].
Consider `CN1C(N)=N[C@](C)(c2cc(/C=C(\F)c3ccc(Br)cn3)ccc2F)CS1(=O)=O` [Example 247, (R,Z)-3-amino-5-(5-(2-(5-bromopyridin-2-yl)-2-fluorovinyl)-2-fluorophenyl)-2,5-dimethyl-5,6-dihydro-2H-1,2,4-thiadiazine 1,1-dioxide], for which the IC50 at BACE1 [1] came to 6 nM; at Cathepsin D (CatD) it was 11000 nM; at human recombinant BACE2, 7 nM; against BACE1 [2], 28 nM.
Take `CN1C(N)=N[C@](C)(c2cc(/C=C(\F)c3cnc(C#CC4CC4)cn3)ccc2F)CS1(=O)=O` [Example 248, (R,Z)-3-amino-5-(5-(2-(5-(cyclopropylethynyl)pyrazin-2-yl)-2-fluorovinyl)-2-fluorophenyl)-2,5-dimethyl-5,6-dihydro-2H-1,2,4-thiadiazine 1,1-dioxide]: the half-inhibitory concentration (IC50) was found to be 3 nM on BACE1 [1], 12700 nM at Cathepsin D (CatD), 16 nM on human recombinant BACE2 and 13 nM on BACE1 [2].
In the case of `CN1C(N)=N[C@](C)(c2cc(/C=C(\F)c3ccc(C#CC4CC4)cn3)ccc2F)CS1(=O)=O` [Example 251, (R,Z)-3-amino-5-(5-(2-(5-(cyclopropylethynyl)pyridin-2-yl)-2-fluorovinyl)-2-fluorophenyl)-2,5-dimethyl-5,6-dihydro-2H-1,2,4-thiadiazine 1,1-dioxide], the IC50 at BACE1 [1] was determined as 7 nM; on Cathepsin D (CatD), 33800 nM; on human recombinant BACE2, 36 nM; on BACE1 [2], 110 nM.
Regarding `CN1C(N)=N[C@](C)(c2cc(/C=C(\F)c3cnc(OCC#CCF)cn3)ccc2F)CS1(=O)=O` [Example 254, (R,Z)-3-amino-5-(2-fluoro-5-(2-fluoro-2-(5-((4-fluorobut-2-yn-1-yl)oxy)pyrazin-2-yl)vinyl)phenyl)-2,5-dimethyl-5,6-dihydro-2H-1,2,4-thiadiazine 1,1-dioxide], the IC50 on BACE1 [1] worked out at 7 nM; at Cathepsin D (CatD), 28300 nM; at human recombinant BACE2, 52 nM; against BACE1 [2] it was 21 nM.

For the origin of these results see patent US11021493B2, “1,4-thiazine dioxide and 1,2,4-thiadiazine dioxide derivatives as beta-secretase inhibitors and methods of use” (AMGEN INC., priority 2016, dated 2021).
